These results are taken from paper PMC10886425, “Antibacterial Activity and Cytotoxicity Screening of Acyldepsipeptide-1 Analogues Conjugated to Silver/Indium/Sulphide Quantum Dots” (Antibiotics, 2024).

Converted amounts (≈) assume the structure as drawn. Like-named read-outs stand apart in the source and are kept apart here.

Data set [1] relates to Pseudomonas aeruginosa ATCC 15,442. Particulars: P. aeruginosa; free ADEP1 analogues; cited from earlier work. An excerpt:
Table 4 MIC and MBC values of the AgInS2 QD-ADEP1 analogue conjugates and ADEP1 analogues. | column: P. aeruginosa / MIC µM; P. aeruginosa / MBC µM

The subject of data set [2] is Methicillin-resistant Staphylococcus aureus (MRSA) ATCC 43300. Particulars: free ADEP1 analogues; cited from earlier work. An excerpt:
Table 4 MIC and MBC values of the AgInS2 QD-ADEP1 analogue conjugates and ADEP1 analogues. | column: MRSA / MIC µM; MRSA / MBC µM

A short description of data set [3]: Hydrodynamic size by dynamic light scattering (DLS). The class given is physicochemical. To be noted: AgInS2 QDs alone or after conjugation with the named ADEP1 analogue. The method, then:
(§1) A Spectro Xepos-05 energy-dispersive X-ray fluorescence (ED-XRF, Rigaku, TX, USA) instrument was used to determine the Ag, In, and S concentrations in the gelatin-capped AgInS2 QD powder. The core sizes of AgInS2 QDs and AgInS2-ADEP1 analogue conjugates were analyzed by the high-resolution transmission electron microscope (HR-TEM, JEOL, Tokyo, Japan). Fourier transform infrared spectroscopy (FTIR) spectra were recorded using a Perkin Elmer Spectrum Two UATR-FTIR spectrometer (PerkinElmer, Buckinghamshire, UK). The Hitachi F-2700FL spectrofluorophotometer (Hitachi, Tokyo, Japan) was used for the fluorescence measurements. Malvern system 4700 zetasizer (Malvern, Great Malvern, UK) together with a dynamic light scattering (DLS) technique were used to determine the zeta potential and particle hydrodynamic size of the AgInS2 QDs and AgInS2-ADEP1 analogue conjugates using.

The test system of data set [4] is Staphylococcus aureus ATCC 25,923. To be noted: S. aureus; free ADEP1 analogues; cited from earlier work. An excerpt:
Table 4 MIC and MBC values of the AgInS2 QD-ADEP1 analogue conjugates and ADEP1 analogues. | column: S. aureus / MIC µM; S. aureus / MBC µM

The test system of data set [5] is Bacillus subtilis ATCC 11774. To be noted: B. subtilis; free ADEP1 analogues; cited from earlier work. An excerpt:
Table 4 MIC and MBC values of the AgInS2 QD-ADEP1 analogue conjugates and ADEP1 analogues. | column: B. subtilis / MIC µM; B. subtilis / MBC µM

Data set [6] can be described thus: Zeta potential (zetasizer). Type of data set: physicochemical. Particulars: Malvern zetasizer; for Zeta Potential after Conjugation: after conjugation to gelatin-capped AgInS2 QDs; for Zeta Potential before Conjugation: unconjugated ADEP1 analogue or AgInS2 QDs alone. The method, then:
as §1

Data set [7] has as its system Escherichia coli ATCC 33,876. To be noted: E. coli; free ADEP1 analogues; cited from earlier work. An excerpt:
Table 4 MIC and MBC values of the AgInS2 QD-ADEP1 analogue conjugates and ADEP1 analogues. | column: E. coli / MIC µM; E. coli / MBC µM

The subject of data set [8] is Methicillin-resistant Staphylococcus aureus (MRSA) ATCC 43300. Kind of data set: Broth microdilution susceptibility assay (MIC) with plating on agar (MBC). Type of data set: cell-based. Particulars: overnight 37 °C, conjugate concentration as loaded ADEP1 analogue. An excerpt:
(§2) ADEP1 analogues (SC005-8) were synthesized in-house, as described by Cobongela et al., [11]. 1-Ethyl-3-(3-dimethylaminopropyl) carbodiimide (EDC), […] (sulfo-NHS), dimethyl sulfoxide (DMSO), thioglycolic acid (TGA), silver nitrate (AgNO3), sodium sulfide (Na2S·xH2O), gelatin, Dulbecco’s Modified Eagle Medium (DMEM), phosphate, trypsin, penicillin-streptomycin, fetal bovine serum (FBS), 3-(4,5-dimethylthiazol-2-yl)-5-(3-carboxymethoxyphenyl)-2-(4-sulfophenyl)-2H-tetrazolium (MTS dye), and trypan blue stain dye were all purchased from Sigma (St Louis, MO, USA). Bacillus subtilis American Type Culture Collection (ATCC) 11774, Staphylococcus aureus ATCC 25,923 and Methicillin-resistant Staphylococcus aureus (MRSA) ATCC 43300, and two Gram-negative (Escherichia coli ATCC 33,876 and Pseudomonas aeruginosa ATCC 15,442 were purchased from ATCC (Manassas, VA, USA). Human embryonic kidney 293 (HEK-293) cells were purchased from Cellonex (Randburg, Gauteng Province, South Africa).
(§3) The MIC and MBC of the AgInS2-ADEP1 analogue conjugates against B. subtilis, S. aureus, MRSA, P. aeruginosa and E. coli was determined using the broth microdilution susceptibility assay, following a previously described protocol. Briefly, overnight-grown bacterial cultures were adjusted to approximately 1.5 × 10^8 CFU/mL in a sterile Luria–Bertani broth. The concentration of ADEP1 on AgInS2-ADEP1 analogue conjugates was calculated based on the ADEP1 analogues calibration curve. AgInS2-ADEP1 analogue conjugates and ADEP1 analogues were diluted via 2-fold serial dilution with broth containing a final concentration range of 0.8–100 µM and 15.6–2000 µM, respectively. Gentamicin (concentration range between 0.007 and 6.7 mM) was used as a positive control for B. subtilis, S. aureus, MRSA, and P. aeruginosa, while ampicillin (concentration range between 0.18 and 6.7 mM) was used as a positive control for E. coli, and 5% DMSO was used as a negative control. The 96-well plates were then incubated overnight at 37 °C. […] The MBC was determined as the lowest concentration resulting in complete […].

The test system of data set [9] is Bacillus subtilis ATCC 11774. The description is as above. Particulars: ATCC11774, B. subtilis, overnight 37 °C, conjugate concentration as loaded ADEP1 analogue. The class given is cell-based.
Source text: as §2, §3

Data set [10] deals with Staphylococcus aureus ATCC 25,923. The data set is described as above. To be noted: ATCC25, S. aureus, overnight 37 °C, conjugate concentration as loaded ADEP1 analogue. Type of data set: cell-based.
Source text: as §2, §3

In data set [11] the test system is Pseudomonas aeruginosa ATCC 15,442. The description is as above. Particulars: ATCC15, P. aeruginosa, overnight 37 °C, conjugate concentration as loaded ADEP1 analogue. The class given is cell-based.
Source text: as §2, §3

The test system of data set [12] is Escherichia coli ATCC 33,876. The description is as above. Type of data set: cell-based. To be noted: ATCC33, E. coli, overnight 37 °C, conjugate concentration as loaded ADEP1 analogue.
Source text: as §2, §3

Where [13] appears, read: Luria-Bertani broth, ~1.5 × 10^8 CFU/mL.
The mark [14] stands for this setting: MIC wells plated on Luria-Bertani agar.

“Adamantane-FCPAAPC; D-form amino acids (disulfide) [SC006, Disulphide bond cyclized ADEP1 analogue, Adamantane-FCPAAPC, D-form amino acids]”: the MBC in data set [1] is recorded as 250 µM; in [2] it was 250 µM; in data set [4], 125 µM; in data set [5], 250 µM; in [7], 750 µM. For the same compound, the MIC was 125 µM in data set [1]; 250 µM in data set [2]; 63 µM in [4]; 250 µM in data set [5]; 500 µM in [7]. In addition, in data set [3], the “Hydrodynamic Diameter” value worked out at 44.2 ± 1.4 nm. For the same compound, in data set [6], the “Zeta Potential after Conjugation” value is 1.38 ± 0.06 mV. For the same compound, the “Zeta Potential before Conjugation” value in data set [6] was −3.8 ± 1.1 mV.

`CNC(C)C1CCC(N)C(OC2C(N)CC(N)C(OC3OCC(C)(O)C(NC)C3O)C2O)O1` (centres unmarked) [Gentamicin]: the MIC in data set [8] (setting [13]) was 26.2 µM (≈ 12.5 µg/mL); in [9] (Luria-Bertani broth, ~1.5 × 10^8 CFU/mL, no visible growth), 26.1 µM (≈ 12.5 µg/mL); in data set [10] (setting [13]), 0.5 µM (≈ 0.239 µg/mL); in data set [11] (setting [13]), 419 µM (≈ 200 µg/mL). The MBC turned out to be 52.4 µM (≈ 25 µg/mL) in [8] (setting [14]), 52.3 µM (≈ 25 µg/mL) in data set [9] (setting [14]), 1 µM (≈ 0.478 µg/mL) in data set [10] (setting [14]) and 838 µM (≈ 400 µg/mL) in [11] (setting [14]).

With “Palmitic acid-FCPAAPC; D-form amino acids (disulfide) [SC005, Disulphide bond cyclized ADEP1 analogue, Palmitic acid-FCPAAPC, D-form amino acids]”, the MBC in [1] was 250 µM; in data set [2], 250 µM; in [4], 125 µM; in data set [5] it was 125 µM; in data set [7] it was 750 µM. For the same compound, the minimum inhibitory concentration (MIC) in data set [1] is 125 µM; in [2], 125 µM; in [4] it was 63 µM; in data set [5], 125 µM; in data set [7], 500 µM. For the same compound, in data set [3], the “Hydrodynamic Diameter” value was determined as 49.6 ± 1.6 nm. Also, the “Zeta Potential after Conjugation” value in data set [6] was determined as 1.46 ± 0.02 mV. Further, in data set [6], the “Zeta Potential before Conjugation” value is listed as −7.2 ± 1.6 mV.

Regarding “Palmitic acid-FCPAAPC; L-form amino acids (disulfide) [SC008, Disulphide bond cyclized ADEP1 analogue, Palmitic acid-FCPAAPC, L-form amino acids]”, the MBC in [1] is given as 250 µM; in data set [2], 500 µM; in data set [4], 125 µM; in data set [5], 125 µM; in data set [7], 750 µM. Also, the MIC is given as 125 µM in data set [1]; 250 µM in [2]; 63 µM in data set [4]; 125 µM in data set [5]; 500 µM in [7]. The “Hydrodynamic Diameter” value in [3] came to 50.3 ± 1.6 nm. Besides, the “Zeta Potential after Conjugation” value in data set [6] is 1.39 ± 0.09 mV. In [6], the “Zeta Potential before Conjugation” value is −6.9 ± 1.5 mV.

Consider `CC1(C)S[C@@H]2[C@H](NC(=O)[C@H](N)c3ccccc3)C(=O)N2[C@H]1C(=O)O` [Ampicillin], for which the MIC in data set [12] (setting [13]) came to 2860 µM (≈ 1000 µg/mL). In data set [12] (setting [14]), the MBC came out at 5.72 mM (≈ 2000 µg/mL).

For “Adamantane-FCPAAPC; L-form amino acids (disulfide) [SC007, Disulphide bond cyclized ADEP1 analogue, Adamantane-FCPAAPC, L-form amino acids]”, the MBC in [1] was 250 µM; in data set [2], 500 µM; in data set [4], 125 µM; in data set [5], 125 µM; in data set [7], 750 µM. Moreover, the MIC in data set [1] is on record as 125 µM; in data set [2], 250 µM; in [4], 63 µM; in data set [5], 125 µM; in data set [7] it was 500 µM. In addition, the “Hydrodynamic Diameter” value in data set [3] was 44.4 ± 0.7 nm. Further, the “Zeta Potential after Conjugation” value in [6] worked out at 1.00 ± 0.15 mV. In addition, in data set [6], the “Zeta Potential before Conjugation” value is −3.9 ± 0.8 mV.
